Results as given in patent publication US6884776B1, “Antimicrobial peptides derived from ubiquicidine” (priority 1997, dated 2005).
Where no end group is shown, it is not given here.

Tests used:
[1] = parameters: species or system mice; conditions: mouse, in vivo
Procedure: Reference is made to FIG. 11 for a schematic view of the experimental infection and treatment of the mice. In summary, mice-were infected intramuscularly in the right thigh muscle with about 10^6 bacteria and after 5 minutes injected intraperitoneally with about 25 μg (labelled) peptide. At different points in time after injection of the peptide the animals were killed and the right thigh muscle was removed, homogenized, and finally the number of bacteria in the homogenate was determined using microbiological plate techniques, or accumulation of the labelled peptide was determined by means of a γ-camera. This test involved animals which were normal and immunocompromised (injection with cyclophosphamide, “total body” radiation).
(§1) Mice were infected in the right thigh muscle with Klebsiella pneumoniae and 25 μg ^99mTc-labelled ubiquicidine (1-18) or ubiquicidine (18-35) was subsequently injected intraperitoneally. At different points in time after injection of the peptide the amount of activity in the right (test) and left (control) thigh muscle of the mouse was measured using a γ-camera. The results are shown in FIG. 12 as a ratio of the values in the right thigh muscle and the left thigh muscle, i.e. “target to non-target ratio”. For the purpose of comparison the results for human defensin and IgG are also shown. The target to non-target ratios for infections and sterile inflammations were also compared (FIG. 13).

[2] = localization of 99mTc-labelled peptides with γ-camera in mice infected with Staphylococcus aureus or with sterile inflammations; assay type: in vivo; conditions: target to non-target ratios, FIG. 13
Procedure: Mice were infected intramuscularly with about 10^6 Staphylococcus aureus bacteria (ATCC 25923) and subsequently injected intraperitoneally with 25 μg ^99mTc-peptide. Mice were also injected intramuscularly with about 1×10^8 heat-killed (1 hour, 100° C.)S. aureus, 1 μg endotoxin or 100 ng phorbol myristate acetate (PMA) in order to cause sterile inflammations. At different points in time after injection of the peptide the radioactivity was measured in the circulation (heart), determined organs (liver, kidney, bladder and spleen) and in both thigh muscles using a γ-camera.
as §1

[3] = in vivo; cited from earlier work
Staphylococcus aureus = experiment: growth-killing curve determination, 60 minutes at 37° C., CFU; assay type: cell-based
Procedure: (§2) Different techniques were used to test for the antimicrobial activity of ubiquicidine and peptides derived therefrom.
(§3) In the control incubations the bacteria multiplied a number of times (not shown).
(§4) Peptides were prepared using an Abimed AMS multiple peptide synthesizer and a fixed phase (tentagel AC, a polymer of polyethylene glycol spacer linked to a polystyrene matrix) (de Koster et al. (1995) J. Immunol. Methods 187:179-188). After completion of the synthesis the peptide was released from the fixed phase using a trifluoroacetic acid water(19:1) mixture and the peptides were subsequently precipitated with an ether pentane(1:1) mixture at […]. After centrifugation the obtained pep-tides were dried at 40° C. for 15 minutes. The peptides were subsequently dissolved in 10% acetic acid and concentrated by means of vacuum centrifugation. The purity of the peptides was determined using HPLC. The antimicrobial activity of these peptide fragments was determined as described in Example 1 under 2.3.

Klebsiella pneumoniae = experiment: as above; assay type: cell-based
Procedure: as §2, §3, §4

micro-organisms = experiment: growth-killing test / in vitro antimicrobial action (IC 99%); assay type: cell-based
Source text: Peptide fragments derived from ubiquicidine comprise a preferably continuous series of at least 3, preferably at least 8 amino acids from the amino acid sequence of ubiquicidine as shown in FIG. 1. For an average skilled person it is simple to ascertain whether a peptide fragment with a series of preferably continuous amino acids chosen from the amino acid sequence of ubiquicidine does actually have antimicrobial activity and thus meets the requirements of the invention. A simple standard test for determining antimicrobial activity is for instance the universally known growth-killing test, i.e. determining of the concentration of an antimicrobial agent which kills 99% of the micro-organisms (IC 99%). Designated by “peptide (fragments)” in this application are therefore all amino acid chains which are smaller than the ubiquicidine itself, but the amino acid sequence of which is to be found, preferably continuously, in the ubiquicidine. The length of such peptide (fragments) can vary from 3 to 58 amino acids, wherein possible extra amino acids added as modification are not included.
as §2

## 99mTc-labelled ubiquicidine 18-35: MAG3-derived ubiquicidine (18-35) labelled with the emitter 99mTc (hybrid molecule) (KVAKQEKKKKKTGRAKRR; also: MAG3 chelator conjugated, site not given here, 99mTc label; UniProt P62861 92-109, looked up, fragment)
[1]
  time to maximum accumulation compared with IgG: much sooner than ^99Tc-IgG
[2]
  accumulation in infection versus sterile inflammations: in a nidus but not in inflammations

## [67Ga] [gallium 67]
[3]
  time needed for accumulation: at least 24 hours

## KVAKQEKKKKKTGRAKRR [ubiquicidine (18-35)]
[1]
  accumulation in the infected thigh muscle: accumulate rapidly

## KVHGSLARAGKVRGQTPK [ubiquicidine (1-18)]
[1]
  accumulation in the infected thigh muscle: accumulate rapidly

## ^99Tc-ubiquicidine (1-18): ubiquicidine (1-18) labelled with technetium 99m (KVHGSLARAGKVRGQTPK; also: labelled with 99mTc, site not given here; UniProt P62861 75-92, looked up, fragment)
[1]
  time to maximum accumulation compared with IgG: much sooner than ^99Tc-IgG

## ubiquicidine (29-41): synthetic peptide fragment of ubiquicidine, amino acids 29-41, sequence in FIG. 1 (TGRAKRRMQYNRR; Small ribosomal subunit protein eS30; UniProt P62861 103-115, looked up, fragment)
Staphylococcus aureus
  antimicrobial activity of peptide fragments: demonstrated antimicrobial activity
Klebsiella pneumoniae
  antimicrobial activity of peptide fragments: demonstrated antimicrobial activity
micro-organisms
  IC 99% (concentration which kills 99% of the micro-organisms): around 1 μM
